System: primary mouse lung fibroblasts (MLFs)
Conditions: 1 μM

Compound: CC[C@@H]1C(=O)N(C)c2cnc(Nc3ccc(C(=O)NC4CCN(C)CC4)cc3OC)nc2N1C1CCCC1 [BI 2536]
- viral replication (luciferase activity in reporter cells): elevated replication
